PubChem BioAssay AID588667 (The Scripps Research Institute Molecular Screening Center, 2011)

Molecular target: Epidermal growth factor receptor (Homo sapiens) (UniProt P00533)
Assay: decrease of EGFR abundance in colorectal cells – SW620 cells, chemiluminescent western blot, powder samples, counter-screen for KLF5 inhibitor project, late-stage follow-up (AID 588667)
Settings: 24 h, at 10 µM; for inhibition: stronger effect = higher value; for signed fold change of EGFR band vs DMSO (negative = fold decrease; more negative = more active): measured here: EGFR band fold change vs DMSO

Sequence of Epidermal growth factor receptor (Homo sapiens) (P00533 whole entry, looked up): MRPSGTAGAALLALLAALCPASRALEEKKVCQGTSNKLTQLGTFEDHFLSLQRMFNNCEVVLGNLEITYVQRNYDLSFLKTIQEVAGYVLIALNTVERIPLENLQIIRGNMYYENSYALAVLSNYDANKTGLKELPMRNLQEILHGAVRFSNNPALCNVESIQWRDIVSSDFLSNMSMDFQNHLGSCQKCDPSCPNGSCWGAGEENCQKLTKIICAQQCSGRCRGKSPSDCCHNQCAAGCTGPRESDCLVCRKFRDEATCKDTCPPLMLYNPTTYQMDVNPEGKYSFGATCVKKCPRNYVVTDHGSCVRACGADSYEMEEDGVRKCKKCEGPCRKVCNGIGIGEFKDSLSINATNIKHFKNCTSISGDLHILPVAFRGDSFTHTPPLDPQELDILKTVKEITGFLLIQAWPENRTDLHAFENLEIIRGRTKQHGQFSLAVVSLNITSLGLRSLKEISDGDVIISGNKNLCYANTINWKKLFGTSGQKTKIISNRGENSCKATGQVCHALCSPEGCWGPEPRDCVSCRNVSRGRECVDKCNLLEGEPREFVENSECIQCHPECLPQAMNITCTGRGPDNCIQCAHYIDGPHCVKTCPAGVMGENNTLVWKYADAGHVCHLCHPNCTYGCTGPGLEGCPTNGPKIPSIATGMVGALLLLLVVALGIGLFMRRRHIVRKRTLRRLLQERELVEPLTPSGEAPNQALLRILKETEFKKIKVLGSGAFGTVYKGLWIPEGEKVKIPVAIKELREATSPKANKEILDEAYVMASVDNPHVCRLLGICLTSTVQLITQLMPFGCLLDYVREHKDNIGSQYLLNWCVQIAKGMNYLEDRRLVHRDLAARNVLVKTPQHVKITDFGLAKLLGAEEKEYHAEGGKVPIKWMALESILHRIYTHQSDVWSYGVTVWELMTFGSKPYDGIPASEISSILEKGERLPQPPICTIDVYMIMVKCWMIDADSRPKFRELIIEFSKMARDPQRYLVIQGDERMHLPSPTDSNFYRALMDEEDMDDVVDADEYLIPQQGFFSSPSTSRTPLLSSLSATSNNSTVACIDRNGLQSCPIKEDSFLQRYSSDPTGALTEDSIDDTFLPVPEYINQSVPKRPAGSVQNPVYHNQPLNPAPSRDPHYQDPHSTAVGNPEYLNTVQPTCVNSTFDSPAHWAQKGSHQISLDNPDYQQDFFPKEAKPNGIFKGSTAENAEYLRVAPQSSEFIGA

inhibition [%]	SMILES	signed fold change of EGFR band vs DMSO (negative = fold decrease; more negative = more active)
53.3	CN(C(=O)COC(=O)/C=C/c1cccc([N+](=O)[O-])c1)C1CCS(=O)(=O)C1 (stereo unspecified)	-2.14
87.1	CN(C(=O)CNC(=O)/C=C/c1cccc(Cl)c1)C1CCS(=O)(=O)CC1	-7.78
31.7	CN(C(=O)CNC(=O)/C=C/c1cccc(Cl)c1)C1CCS(=O)(=O)C1 (stereo unspecified)	-1.46
